Measured values taken from publication PMC8747035, “Design, Synthesis, and Biological Evaluation of 5,6,7,8-Tetrahydrobenzo[4,5]thieno[2,3-d]pyrimidines as Microtubule Targeting Agents” (Molecules, 2022).
Like-named read-outs stand apart in the source and are kept apart here.

Legend:
MDA-MB-435 cells = details: SRB assay, antiproliferative; read-out: IC50 ± SD in MDA-435 Cells; cited from earlier work
A-10 cells = details: read-out: EC50 for Microtubule Depolymerization in A-10 Cells; cited from earlier work
Bovine brain tubulin = details: read-out: Inhibition of Tubulin Assembly IC50 ± SD; cited from earlier work
tubulin = details: compound at 5 μM; cited from earlier work
HeLa cells [1] = details: read-out: IC50 ± SD in HeLa; cited from earlier work
HeLa WTβIII cells [2] = details: read-out: IC50 ± SD in HeLa WTβ3; cited from earlier work
SK-OV-3 cells [3] = details: read-out: IC50 ± SD in SK-OV-3 Cells; cited from earlier work
SK-OV-3 MDR1-M6/6 cells = details: read-out: IC50 ± SD in SK-OV-3 MDR1-M6/6 Cells; cited from earlier work
HeLa cells [4] = test: SRB assay in HeLa cells; type: cell-based; details: Homo sapiens, read-out: IC50 ± SD in HeLa
Protocol: (§1) Compounds 4–8, 10, 12, and 13 were evaluated for their abilities to overcome βIII-tubulin mediated drug resistance using an isogenic HeLa cell line pair (Table 4). […] The Rr values (Table 4) were calculated by dividing the IC50 of the βIII-tubulin expressing line by the IC50 obtained in the parental HeLa cells.
(§2) The antiproliferative and cytotoxic effects of the compounds in cancer cells were evaluated using the SRB assay as previously described. MDA-MB-435 cells were obtained from the Lombardi Cancer Center of Georgetown University (Washington, DC, USA). SK-OV-3 and HeLa cells were purchased from ATCC. Details about the generation of the SK-OV-3 MDR1-M6/6 and HeLa WTβIII cells were described previously. The IC50 values represent an average of three independent experiments, each conducted using triplicate points.
(§3) HeLa, A-10, SK-OV-3, and SK-OV-3 MDR1-M6/6 cells were grown in Basal Medium Eagle (Sigma-Aldrich, St. Louis, MO, USA) supplemented with 10% FBS (Hyclone, GE Life Sciences, Logan, UT, USA) 1% GlutaMAX (Gibco, Life Technologies, Waltham, MA, USA) and 50 µg/mL gentamycin (Life Technologies, USA). HeLa WTβIII cells were grown in Dulbecco’s Modified Eagle Medium (Life Technologies) supplemented with 10% FBS and 50 µg/mL gentamycin. MDA-MB-435 cells were maintained in Improved Minimum Essential Medium (Life Technologies) supplemented with 10% FBS and 25 µg/mL gentamycin. All cells were grown at 37 °C in a humidified environment with 5% CO2.

HeLa WTβIII cells [5] = test: SRB assay in βIII-tubulin expressing HeLa WTβIII cells; type: cell-based; details: Homo sapiens, read-out: IC50 ± SD in HeLa WTβ3
Protocol: as §1, §2, §3

SK-OV-3 cells [6] = test: SRB assay in SK-OV-3 cells; type: cell-based; details: Homo sapiens, read-out: IC50 ± SD in SK-OV-3 Cells
Protocol: Comparison of the IC50 values in the parental SK-OV-3 and genetically manipulated SK-OV-3 MDR1-M6/6 cell line allows for the calculation of a relative resistance value, designated Rr. This value is calculated by dividing the IC50 value obtained in the Pgp-expressing SK-OV-3 MDR1-M6/6 cells by the IC50 obtained in the parental SK-OV-3 cells.
as §2, §3

MDA-MB-435 tumors = test: MDA-MB-435 xenograft model; type: in vivo, nude mice; details: 15 mg/kg i.p. 3 times a week
Protocol: Compound 4 was selected for further evaluation in an in vivo xenograft mouse study in light of its nanomolar potency in vitro in the NCI-60 cancer cell line panel and its potent microtubule depolymerization activity. The in vivo effects of 4 were tested in the MDA-MB-435 xenograft model (Figure 5).
MDA-MB-435 tumor fragments were implanted s.c. into the flanks of female nude mice. […] Compound 4 was dissolved in a 50:50 Cremophor EL/DMSO mixture and further dissolved in PBS for a final concentration of 10:10:80 Cremophor EL:DMSO:PBS (v/v). […] Tumor volumes and mouse weights were measured 2–3 times a week. A two-way ANOVA with Dunnett’s post-hoc tests including all treatment groups in the trial was used to determine significant differences in tumor volumes between drug-treated and untreated control groups on each measurement day. These animal studies were performed at the University of Texas Health Science Center in San Antonio in compliance with an approved Institutional Animal Care and Use protocol.
MDA-MB-435 tumors were implanted into the flanks of nude mice and allowed to grow until they reached a volume of ~200 mm^3. […] Tumor volumes and mouse weights were measured 2–3 times a week. Statistical significance was evaluated by two-way ANOVA (time vs. drug) with Dunnett’s post-hoc tests. A statistically significant difference in tumor volume was detected on day 14 between mice treated with 4 (* p = 0.0384) and untreated control tumors.

| SMILES | IC50 (MDA-MB-435 cells) [nM] | EC50 (A-10 cells) [nM] | IC50 (Bovine brain tubulin) [nM] | Inhibition of Colchicine Binding (% inhibition ± SD) (tubulin) [%] | IC50 (HeLa cells [1]) [nM] | IC50 (HeLa WTβIII cells [2]) [nM] | IC50 (SK-OV-3 cells [3]) [nM] | IC50 (SK-OV-3 MDR1-M6/6 cells) [nM] | IC50 (HeLa cells [4]) [nM] | IC50 (HeLa WTβIII cells [5]) [nM] | IC50 (SK-OV-3 cells [6]) [nM] | Antitumor effects on MDA-MB-435 tumor volume vs control (MDA-MB-435 tumors) |
| --- | --- | --- | --- | --- | --- | --- | --- | --- | --- | --- | --- | --- |
| COc1ccc(N(C)c2nc(N)nc3[nH]c4ccccc4c23)cc1 [Compound 1] | 14.7 ± 1.5 | 130 | 1400 ± 7 | 84 ± 0.50 | 21.3 ± 2.2 | 21.4 ± 3.5 | 27.6 ± 1.8 | – | – | – | – | – |
| CSc1ccc(N(C)c2nc(N)nc3[nH]c4ccccc4c23)cc1 [Compound 2] | 89.1 ± 10 | 1100 | 2300 ± 300 | 67.0 ± 5.0 | 118 ± 13 | 78.4 ± 4 | 156 ± 16 | 160 ± 15 | – | – | – | – |
| COc1ccc(N(C)c2ncnc3[nH]c4ccccc4c23)cc1 [Compound 3] | 130 ± 7.8 | 1200 | 2300 ± 400 | 62.0 ± 4.0 | 142 ± 8.1 | 99.5 ± 12 | 173 ± 8.6 | 224 ± 21 | – | – | – | – |
| CC(=O)O[C@H]1C(=O)[C@@]2(C)[C@H]([C@H](OC(=O)c3ccccc3)[C@]3(O)C[C@H](OC(=O)[C@H](O)[C@@H](NC(=O)c4ccccc4)c4ccccc4)C(C)=C1C3(C)C)[C@]1(OC(C)=O)CO[C@@H]1C[C@@H]2O [Paclitaxel, paclitaxel, reference compound] | – | – | – | – | – | – | – | – | 2.8 ± 0.4 | 24 ± 3 | 5 ± 0.6 | did not reach statistical significance |
